“Also recorded” adds a separate entry of the source.
How the values were obtained:
[1] = system: kidneys of NASH mice (AMLN diet); assay: Renal fibrosis in NASH mouse model, picrosirius red (PSR) staining of kidneys; type: in vivo; details: mice on AMLN diet 30 weeks, then PO treatment 8 weeks twice a day, 7 or 20 mg/kg; kidneys at sacrifice
Method: (§1) Compound #157 was evaluated in a mouse model of NASH. Mice were fed with an AMLN diet (high in fat (40%), fructose (22%) and cholesterol (2%)) for 30 weeks prior treatment with Compound #157 for 8 weeks twice a day at a dose of 7 or 20 mg/kg.
(§2) The livers and kidneys were collected at sacrifice. Fibrosis, in particular tubulointerstitial fibrosis, has been evaluated by quantification of the picrosirius red (PSR) staining positive areas. Inflammation has been quantified on CD3 stained sections.

[2] = system: kidneys of NASH mice (AMLN diet); assay: Renal inflammation in NASH mouse model, CD3 stained kidney sections; type: in vivo; details: mice on AMLN diet 30 weeks, then PO treatment 8 weeks twice a day, 7 or 20 mg/kg; kidneys at sacrifice
Method: as §1, §2

Structure (SMILES): O=C(Nc1scc(C2CCc3ccccc3C2)c1C(=O)O)c1ccccc1 (stereo not drawn) [Compound #157]
- renal fibrosis (tubulointerstitial), quantification of picrosirius red (PSR) staining positive areas [1]: completely resolve fibrosis; also recorded: significantly decreases renal fibrosis
- decrease of renal inflammation (CD3 stained sections) [2]: 50%
- renal inflammation (lymphocytes infiltration), quantified on CD3 stained sections [2]: attenuate significantly inflammation; also recorded: significantly decreases renal inflammation
